From ChEMBL document CHEMBL1201862, “PubChem BioAssay data set” (2004)
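Compound exposure: 48 hours, 5 concentrations, 96-well plates. GI50 is the concentration that inhibits growth by half.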 The source made the active and inactive calls. No stated cut-off is given here; in the data, active = GI50 up to about 1.1 µM and inactive = higher.

Key:
Experiment in all cases: inhibition of tumour cell growth, NCI panel, 48 h
A498 = test system: A498
A549 = test system: A549
ACHN = test system: ACHN
BT-549 = test system: BT-549
CAKI-1 = test system: CAKI-1
COLO 205 = test system: COLO 205
DU-145 = test system: DU-145
EKVX = test system: EKVX
HCC 2998 = test system: HCC 2998
HCT-15 = test system: HCT-15
HL-60 = test system: HL-60
HOP-62 = test system: HOP-62
HOP-92 = test system: HOP-92
HT-29 = test system: HT-29
Hs-578T = test system: Hs-578T
IGROV-1 = test system: IGROV-1
K562 = test system: K562
KM12 = test system: KM12
LOX IMVI = test system: LOX IMVI
M14 = test system: M14
MCF7 = test system: MCF7
MDA-MB-231 = test system: MDA-MB-231
MDA-MB-435 = test system: MDA-MB-435
MOLT-4 = test system: MOLT-4
Malme-3M = test system: Malme-3M
NCI-H226 = test system: NCI-H226
NCI-H23 = test system: NCI-H23
NCI-H460 = test system: NCI-H460
NCI-H522 = test system: NCI-H522
NCI/ADR-RES = test system: NCI/ADR-RES
OVCAR-3 = test system: OVCAR-3
OVCAR-4 = test system: OVCAR-4
OVCAR-5 = test system: OVCAR-5
OVCAR-8 = test system: OVCAR-8
PC-3 = test system: PC-3
RPMI-8226 = test system: RPMI-8226
RXF 393 = test system: RXF 393
SF-268 = test system: SF-268
SF-295 = test system: SF-295
SK-MEL-28 = test system: SK-MEL-28
SK-MEL-2 = test system: SK-MEL-2
SK-MEL-5 = test system: SK-MEL-5
SK-OV-3 = test system: SK-OV-3
SNB-19 = test system: SNB-19
SNB-75 = test system: SNB-75
SW-620 = test system: SW-620
T47D = test system: T47D
TK-10 = test system: TK-10
U-251 = test system: U-251
UACC-257 = test system: UACC-257
UACC-62 = test system: UACC-62
UO-31 = test system: UO-31

With `COP(=O)(OC)[C@H](O)[C@H]1C[C@@H]1c1ccccc1` the GI50 (A498) was > 100 µM (inactive), the GI50 (A549) was > 100 µM (inactive) and the GI50 (ACHN) was > 100 µM (inactive). The GI50 (BT-549) was > 100 µM (inactive), the GI50 (CAKI-1) was > 100 µM (inactive) and the GI50 (COLO 205) was > 100 µM (inactive). The GI50 (DU-145) was > 100 µM (inactive), the GI50 (EKVX) was > 100 µM (inactive) and the GI50 (HCC 2998) was > 100 µM (inactive). The GI50 (HCT-15) was greater than 100 µM, the GI50 (HL-60) was > 100 µM (inactive) and the GI50 (HOP-62) was > 100 µM (inactive). For the same compound, the GI50 (HOP-92) was 17.4 µM (inactive), the GI50 (HT-29) was > 100 µM (inactive) and the GI50 (Hs-578T) was 18.9 µM (inactive). The GI50 (IGROV-1) was > 100 µM (inactive), the GI50 (K562) was > 100 µM (inactive) and the GI50 (KM12) was > 100 µM (inactive). The GI50 (LOX IMVI) was > 100 µM (inactive), the GI50 (M14) was > 100 µM (inactive) and the GI50 (MCF7) was > 100 µM (inactive). For the same compound, the GI50 (MDA-MB-231) was > 100 µM (inactive), the GI50 (MDA-MB-435) was > 100 µM (inactive) and the GI50 (MOLT-4) was > 100 µM (inactive). The GI50 (Malme-3M) was > 100 µM (inactive), the GI50 (NCI-H226) was > 100 µM (inactive) and the GI50 (NCI-H23) was > 100 µM (inactive). The GI50 (NCI-H460) was > 100 µM (inactive), the GI50 (NCI-H522) was > 100 µM (inactive) and the GI50 (NCI/ADR-RES) was > 100 µM (inactive). The GI50 (OVCAR-3) was > 100 µM (inactive), the GI50 (OVCAR-4) was > 100 µM (inactive) and the GI50 (OVCAR-5) was > 100 µM (inactive). For the same compound, the GI50 (OVCAR-8) was > 100 µM (inactive), the GI50 (PC-3) was > 100 µM (inactive) and the GI50 (RPMI-8226) was > 100 µM (inactive). For the same compound, the GI50 (RXF 393) was > 100 µM (inactive), the GI50 (SF-268) was > 100 µM (inactive) and the GI50 (SF-295) was > 100 µM (inactive). The GI50 (SK-MEL-28) was > 100 µM (inactive), the GI50 (SK-MEL-2) was > 100 µM (inactive) and the GI50 (SK-MEL-5) was > 100 µM (inactive). The GI50 (SK-OV-3) was > 100 µM (inactive), the GI50 (SNB-19) was > 100 µM (inactive) and the GI50 (SNB-75) was > 100 µM (inactive). The GI50 (SW-620) was > 100 µM (inactive), the GI50 (T47D) was > 100 µM (inactive) and the GI50 (TK-10) was > 100 µM (inactive). For the same compound, the GI50 (U-251) was > 100 µM (inactive), the GI50 (UACC-257) was > 100 µM (inactive) and the GI50 (UACC-62) was > 100 µM (inactive). For the same compound, the GI50 (UO-31) was > 100 µM (inactive).
